These results are taken from patent US20230172923A1, “METHODS OF TREATING CYTOKINE-RELATED ADVERSE EVENTS” (BRISTOL-MYERS SQUIBB COMPANY, priority 2020, published 2023).

“Also recorded” adds a separate entry of the source.

Format in all cases: cell-based, human
The subject of test [1] is IL-6. The test is described as follows: LPS-induced IL-6 secretion from monocytes with nigericin (MSD). The settings on record: overnight 1 nM, 10 nM or 100 nM Compound 1; LPS 4 hours, then 5 µg/ml nigericin 1 hour. Here is the method:
Monocytes from healthy volunteers were seeded at a concentration of 1×10^6 cells/ml and treated with the indicated concentration of Compound 1 overnight. The next morning, the monocytes were incubated with the indicated concentration of LPS for 4 hours, and then stimulation with 5 ug/ml of nigericin for 1 hour, before IL-6 levels in the supernatant were assessed using an MSD assay.
Monocytes from two healthy human donors were isolated as in Example 1. Here isolated monocytes (1×10^6 cells/ml) were treated with various concentrations of Compound 1 (1 nM, 10 nM, or 100 nM), or control DMSO (0.001%), overnight (~17 hours) before stimulation with various concentrations of LPS.
After 4 hours, 5 µg/ml of nigericin was added to activate the inflammasome for 1 hour, supernatants were harvested, and MSD analysis was performed to quantify secreted IL-6.

A further test deals with IL-2. The test is described as follows: CC-93269-induced IL-2 secretion, co-culture of PBMCs and K562-BCMA cells (MSD). The settings on record: Compound 1 pre-treatment; 24 hours. Here is the method: Co-cultures of PBMCs, target K562-BCMA cells and CC-93269 were prepared as for FIG. 9. At 6-, 24- and 48-hours post-incubation, the cell culture media was collected and levels of TNF-alpha (FIG. 12A) and IL-2 (FIG. 12B) in the supernatant were assessed using an MSD assay. ULOQ = Upper limit of quantification.
Fresh PBMCs were isolated from the blood (buffy coat) of healthy human volunteers by Ficoll based cell separation. The percentage of CD3+ T-cells (total) in the PBMCs was quantified by flow cytometry. The isolated PBMCs were seeded in 12-well plates at a concentration of 1.5×10^6 cells/ml and treated with 1 nM Compound 1 (CC-92480), 1000 nM lenalidomide, 100 nM pomalidomide, 10 nM iberdomide, or control DMSO overnight (~17 hours).
After overnight incubation, target K562-BCMA cells (overexpress surface BCMA at a very high level) or control K562-MCB cells (no BCMA expression) were added to the wells at a ratio of 5:1, T-cells to target cells. K562-BCMA and K562-MCB are an isogenic pair that are derived from a chronic myelogenous leukemia (CML,) cell line. CC-93269 was added to the co-culture at various concentrations and incubated. CC-93269 is an anti-BCMA anti-CD3 bispecific T cell-engaging antibody and is also referred to herein as 42-TCBcv.

Another test concerns IL1-beta. Description: CC-93269-induced IL1-beta secretion, co-culture of PBMCs and K562-BCMA cells (MSD). Here is the method:
Co-cultures of PBMCs, target K562-BCMA cells and CC-93269 were prepared as for FIG. 9. At 6-, 24- and 48-hours post-incubation, the cell culture media was collected and levels of IL1-beta in the supernatant were assessed using an MSD assay (FIG. 13A). […] The circles indicate independent donors and the bars indicate median values; not all donors are shown because a data cut-off for the bottom ~10% of IL1-beta concentrations, below 100 pg/ml, was used to eliminate small changes that could skew the result and to increase confidence in results.
Fresh PBMCs were isolated from the blood (buffy coat) of healthy human volunteers by Ficoll based cell separation. The percentage of CD3+ T-cells (total) in the PBMCs was quantified by flow cytometry. The isolated PBMCs were seeded in 12 well plates at a concentration of 1.5×10^6 cells/ml and treated with 1 nM Compound 1 (CC-92480) or control DMSO overnight (~17 hours). After overnight incubation, target K562-BCMA cells were added to the wells at a ratio of 5:1, T-cells to target cells, followed by incubation with CC-93269 at various concentrations. […]
At 6, 24 and 48 hours post-incubation, the cell culture media was collected from all samples, spun down at 300 g for 5 minutes to remove cells and the supernatant was subjected to cytokine analysis to quantify secreted levels of IL1-beta using an MSD assay.

For test [2], the system named is IL-6. The test is described as follows: CC-93269-induced IL-6 secretion, co-culture of PBMCs and H929 multiple myeloma cells (MSD). The settings on record: 1 nM Compound 1 pre-treatment overnight, washed out; two donors. Here is the method: Fresh PBMCs were isolated from healthy volunteers, the percentage of CD3+ T-cells (total) was quantified by flow cytometry, and the PBMCs were treated with 1 nM Compound 1 (CC-92480) or control DMSO overnight. The next morning, target H929 cells were added to the wells at a ratio of 5:1, T-cells to target cells, followed by addition of CC-93269 at indicated concentrations. At 6-, 24- and 48-hours post-incubation, the cell culture was collected and levels of IL-6 in the supernatant were assessed using an MSD assay.
Fresh PBMCs were isolated from the blood (buffy coat) of human volunteers by Ficoll based cell separation. The percentage of CD3+ T-cells (total) in the PBMCs was quantified by flow cytometry. The isolated PBMCs were seeded in 12 well plates at a concentration of 1.5×10^6 cells/ml and treated with 1 nM Compound 1 (CC-92480) or control DMSO overnight (~17 hours). After overnight incubation, the cells were washed to remove CC-92480, before target H929 cells were added to the wells at a ratio of 5:1, T-cells to target cells. […]
The co-culture was then incubated with CC-93269 at various concentrations. At 6, 24 and 48 hours post-incubation, the cell culture media was collected from all samples, spun down at 300 g for 5 minutes to remove cells and the supernatant was subjected to cytokine analysis to quantify secreted levels of IL-6 using an MSD assay. […]

`N#Cc1ccc(N2CCN(Cc3ccc(COc4cccc5c4CN(C4CCC(=O)NC4=O)C5=O)cc3)CC2)c(F)c1` (stereo not drawn) [Compound 1, 4-(4-(4-(((2-(2,6-dioxopiperidin-3-yl)-1-oxoisoindolin-4-yl)oxy)methyl)benzyl)piperazin-l-yl)-3-fluorobenzonitrile]: the “LPS-induced IL-6 secretion from monocytes” value in the test with IL-6 [1] is given as “diminished”. Moreover, the “CC-93269-induced IL-2 secretion from PBMCs with K562 target cells” value in the test with IL-2 was “potentiates”. For the same compound, the “secretion of IL1-beta associated with CC-93269 activity, PBMCs + K562-BCMA” value in the test on IL1-beta (1 nM Compound 1 pre-treatment overnight) was “diminished/attenuated; also recorded: suppressed”. Moreover, the “median reduction in IL1-beta levels relative to DMSO control” value in the test on IL1-beta (Compound 1 pre-treatment, 10 ng/ml CC-93269, 24 hours, PBMCs from 15 healthy donors) is on record as “ten-fold”. In addition, the “secretion of IL-6 associated with CC-93269 activity, PBMCs + multiple myeloma cells (H929)” value with IL-6 [2] is given as “diminished/attenuated”.
